From PMC8036666, “Biological and Physico-Chemical Characteristics of Arginine-Rich Peptide Gemini Surfactants with Lysine and Cystine Spacers” (International Journal of Molecular Sciences, 2021)
In brackets after ≈: the same amount, converted by molar mass. Several values for one entry are separate records, joined by “and”; a condition that tells them apart may be missing. Identical values can stand only once. Where a SMILES comes first, the peptide text is derived from it. Side-chain parts run from the residue outwards. [ ]: non-standard residue; d: D form. The star is where a group is joined. Myristoyl = CCCCCCCCCCCCCC(=O)*; Lauroyl = CCCCCCCCCCCC(=O)*; Nle = CCCC[C@H](N)C(=O)O; Octanoyl = CCCCCCCC(=O)*

Experiments:
[1] = Lipopeptide hydrophobicity by RP-HPLC (adjusted retention time); type: physicochemical; details: RP-HPLC, 20–65% acetonitrile over 30 min, indicator of hydrophobicity
Protocol: (§1) The identity of the purified peptides was confirmed with electrospray ionization mass spectrometry (ESI-MS) in positive ion mode. Results of MS analyses and net charge are attached in Supplementary Materials (Table S1). Peptides’ hydrophobicity was evaluated by analytical reversed-phase high-performance liquid chromatography (RP-HPLC). The critical aggregation concentrations (CACs) of the lipopeptides were determined in unbuffered aqueous solution at 298 K by measuring the surface tension as a function of lipopeptide concentration. The measurements were carried out by the Du Noüy ring method on a K100 tensiometer. The surface tension data were plotted against the logarithm of lipopeptide concentration. CAC was found as the intersection of two lines being linear regression of data below and above CAC.
Lipopeptide hydrophobicity was determined as described previously. To do this, a Waters Alliance e2695 system with a Waters 2998 PDA Detector (software-Empower 3, Waters, Milford, MA, USA) was used. All analyses were carried out on a Waters X-Bridge Shield RP-18 column (3.0 × 100 mm, 3.5 μm particle size, 130 Å pore size). The Shield Technology column with embedded polar groups was used to minimize interactions of unreacted silanol groups with basic lipopeptides. The peptides were dissolved in water (0.1% TFA, v/v) up to a concentration of 1 mg/mL. UV detection at 214 nm was used, and samples (10 μL) were eluted with a linear 20–65% acetonitrile gradient in deionized water over 30 min at 25.0 ± 0.1 °C. The mobile phase flow rate was 0.5 mL/min. Both eluents contained 0.1% (v/v) of TFA. Each peptide sample was analyzed in triplicate. The maximum standard deviation and coefficient of variation were 0.044 and 0.85%, respectively.

[2] = Critical aggregation concentration by surface tension (Du Noüy ring, K100 tensiometer); type: physicochemical; details: unbuffered aqueous solution, 298 K
Protocol: as §1
The critical aggregation concentration (CAC) values were determined fully automatically using a K100 tensiometer (KRUSS, Hamburg, Germany) equipped with two micro dosimeters by measuring the surface tension vs. lipopeptide concentration. The measurements were performed in unbuffered aqueous solution at 298 K using the Du Noüy ring method. The accuracy of the surface tension measurements was 0.1 mN/m. The critical aggregation concentration (CAC) was defined as the intersection of two lines fitted to the experimental data collected before and after the inflection point.

[3] = test system: human red blood cells (hRBCs); assay: Hemolysis assay; type: cell-based; details: red cells of human, 1 h
Protocol: The hemolysis assay was performed by using the method reported previously. Fresh human red blood cells (hRBCs) with anticoagulant (EDTA) were rinsed three times with a PBS by centrifugation at 800× g for 10 min and diluted with PBS. The compounds were serially diluted on a 96-well microtiter polystyrene plate, and hRBCs were added up to a final volume of 100 μL. The compound concentration ranged between 0.5 and 256 μg/mL and the final hRBCs concentration was 4% (v/v). Controls for zero (blank) and 100% hemolysis consisted of hRBCs suspended in PBS and 1% of Triton-X 100 (Carl Roth GmbH, Karlsruhe, Germany), respectively. The plate was incubated for 1 h at 37 °C and then centrifuged (800× g, 10 min, 4 °C). Subsequently, the supernatant was […] to new microtiter plates, and the absorbance at 540 nm was measured (Multiskan GO Microplate Spectrophotometer, Thermo Fisher Scientific, Vantaa, Finland). All experiments were conducted in triplicate. HC50 was calculated using an ic50.tk tool. The protocol of the study was approved by the local Bioethics Committee at the Medical University of Gdańsk (NKBBN/262/2019, approval date: 10 June 2019).

HaCaT cells = type: cell-based, human; details: 24 h
Protocol: Cells were trypsinized, and the medium was renewed 2–3 times per week. The cytotoxicity of compounds was assessed by the determination of cell metabolic activity by colorimetric CellTilter 96® Aqueous One Solution Cell Proliferation Assay (Promega, Madison, WI, USA), according to the manufacturer’s instructions. […] Every compound was medium-soluble in 37 °C; thus, the control cells were cultured with the medium. Serial dilutions of the tested compounds were always prepared prior to use. Cells were incubated with drugs for 24 h, and then, 20 μL of the CellTiter 96®AqueousOne Solution Reagent was added to each well containing cells maintained in 100 μL of culture medium.

[4] = test system: Acinetobacter baumannii ATCC BAA 1605; details: ATCC BAA 1605, 24 h
Protocol: (§2) The Acinetobacter baumannii ATCC BAA-1605, Enterococcus faecium ATCC 700221, Escherichia coli ML-35 ATCC 43827, Klebsiella aerogenes ATCC 13048, Klebsiella pneumoniae ATCC 700603, Pseudomonas aeruginosa ATCC 9027, Staphylococcus aureus ATCC 25923, Staphylococcus aureus ATCC 33591, Candida albicans ATCC 10231, Candida glabrata ATCC 15126, strains were acquired from the American Type Culture Collection (ATCC). All the strains were stored at −80 °C in Roti-Store cryo vials and before the tests were transferred into fresh Mueller–Hinton broth (MHB, Biocorp, Warsaw, Poland) for bacteria or RPMI-1640 (Sigma-Aldrich, Steinheim, Germany) for fungi and incubated for 24 h at 37 °C. Then, the cultures were seeded on the Mueller–Hinton agar (BioMaxima, Lublin, Poland) or Sabouraud dextrose agar (SDA, BioMaxima, Lublin, Poland) plates, respectively, and incubated as just mentioned. These agar cultures were used for further microbiological assays. Cell densities for all assays were adjusted spectrophotometrically (Multiskan GO Microplate Spectrophotometer, Thermo Fisher Scientific, Vantaa, Finland) at 600 and 530 nm for bacteria and fungi, respectively.
(§3) The MICs were determined by the broth microdilution method according to the Clinical and Laboratory Standard Institute guidelines. […] The experiments were conducted on 96-well microtiter polystyrene plates (Kartell, Noviglio, Italy). The growth was assessed visually after incubation, and the MIC was assumed as the lowest peptide concentration at which a noticeable growth of microorganisms was inhibited. All experiments were conducted in triplicate.

[5] = test system: Enterococcus faecium ATCC 700221; details: ATCC 700221, 24 h
Protocol: as §2, §3

[6] = test system: Klebsiella aerogenes ATCC 13048; details: ATCC 13048, 24 h
Protocol: as §2, §3

[7] = test system: Klebsiella pneumoniae ATCC 700603; details: ATCC 700603, 24 h
Protocol: as §2, §3

[8] = test system: Pseudomonas aeruginosa ATCC 9027; details: ATCC 9027, 24 h
Protocol: as §2, §3

[9] = test system: Staphylococcus aureus ATCC 25923; details: ATCC 25923, 24 h
Protocol: as §2, §3

Adjusted Retention Time [1] [min] | CAC [2] | Surface Tension at CAC [2] [mN/m] | MIC Acinetobacter baumannii ATCC BAA 1605 [4] [µg/mL] | MIC Enterococcus faecium ATCC 700221 [5] [µg/mL] | MIC Klebsiella aerogenes ATCC 13048 [6] | MIC Klebsiella pneumoniae ATCC 700603 [7] [µg/mL] | MIC Pseudomonas aeruginosa ATCC 9027 [8] [µg/mL] | MIC Staphylococcus aureus ATCC 25923 [9] [µg/mL] | Compound | HC50 [3] [µg/mL] | IC50 (HaCaT cells) [µg/mL]
19.09 | 0.87 mM and 987.3 μg/mL | 41 | 8 (≈ 7.05 µM) | 2 (≈ 1.76 µM) | 32 µg/mL (≈ 28.2 µM) | 64 (≈ 56.4 µM) | 4 (≈ 3.53 µM) | 4 (≈ 3.53 µM) | CCCCCCCCCCCC(=O)N[C@@H](CCCNC(=N)N)C(=O)N[C@@H](CCCNC(=N)N)C(=O)NCCCC[C@H](NC(=O)[C@H](CCCNC(=N)N)NC(=O)[C@H](CCCNC(=N)N)NC(=O)CCCCCCCCCCC)C(N)=O [Compound B3] (Lauroyl-Arg-Arg-Lys([Arg-Arg-Lauroyl])-NH2) | 56.29 ± 6.50 | 26.42 ± 4.24 (≈ 23.3 µM)
25.33 | 0.31 mM and 365.7 μg/mL | 40 | 64 (≈ 53.8 µM) | 8 (≈ 6.72 µM) | 32 µg/mL (≈ 26.9 µM) | 32 (≈ 26.9 µM) | 32 (≈ 26.9 µM) | 64 (≈ 53.8 µM) | CCCCCCCCCCCCCC(=O)N[C@@H](CCCNC(=N)N)C(=O)N[C@@H](CCCNC(=N)N)C(=O)NCCCC[C@H](NC(=O)[C@H](CCCNC(=N)N)NC(=O)[C@H](CCCNC(=N)N)NC(=O)CCCCCCCCCCCCC)C(N)=O [Compound B4] (Myristoyl-Arg-Arg-Lys([Arg-Arg-Myristoyl])-NH2) | 44.12 ± 4.70 | 32.39 ± 4.49 (≈ 27.2 µM)
15.19 | 2.47 mM and 3247.9 μg/mL | 39 | 32 (≈ 24.3 µM) | 4 (≈ 3.04 µM) | 256 (−/−) µg/mL | 128 (≈ 97.2 µM) | 8 (≈ 6.08 µM) | 2 (≈ 1.52 µM) | CCCCCCCC(=O)N[C@@H](Cc1ccccc1)C(=O)N[C@@H](CCCNC(=N)N)C(=O)N[C@@H](CCCNC(=N)N)C(=O)NCCCC[C@H](NC(=O)[C@H](CCCNC(=N)N)NC(=O)[C@H](CCCNC(=N)N)NC(=O)[C@H](Cc1ccccc1)NC(=O)CCCCCCC)C(N)=O [Compound B5] (Octanoyl-FRRK([Arg-Arg-Phe-Octanoyl])-NH2) | 181.38 ± 8.99 | 169.13 ± 32.80 (≈ 128 µM)
13.96 | 3.59 mM and 4482.4 μg/mL | 37 | 32 (≈ 25.6 µM) | 2 (≈ 1.6 µM) | 256 (−/−) µg/mL | 64 (≈ 51.3 µM) | 4 (≈ 3.2 µM) | 2 (≈ 1.6 µM) | CCCCCCCC(=O)N[C@@H](CCCC)C(=O)N[C@@H](CCCNC(=N)N)C(=O)N[C@@H](CCCNC(=N)N)C(=O)NCCCC[C@H](NC(=O)[C@H](CCCNC(=N)N)NC(=O)[C@H](CCCNC(=N)N)NC(=O)[C@H](CCCC)NC(=O)CCCCCCC)C(N)=O [Compound B6] (Octanoyl-[Nle]RRK([Arg-Arg-Nle-Octanoyl])-NH2) | >256 | 164.17 ± 14.65 (≈ 131 µM)
